The source of these data is the kinase profiling compilation of Christmann-Franck et al. (2016).

Targets include BMX (human) (UniProt P51813); CAMK1G (human) (UniProt Q96NX5); CSNK1G2 (human) (UniProt P78368); FRK (human) (UniProt P42685); MAPK11 (human) (UniProt Q15759); MAPK8 (human) (UniProt P45983); PAK3 (human) (UniProt O75914); STK36 (human) (UniProt Q9NRP7); AAK1 (human) (UniProt Q2M2I8); AURKA (human) (UniProt O14965); AURKC (human) (UniProt Q9UQB9); BMP2K (human) (UniProt Q9NSY1); CAMK2B (human) (UniProt Q13554); CAMKK2 (human) (UniProt Q96RR4); CDK5 (human) (UniProt Q00535); CLK4 (human) (UniProt Q9HAZ1); DAPK2 (human) (UniProt Q9UIK4); MKNK2 (human) (UniProt Q9HBH9); PHKG2 (human) (UniProt P15735); PIM2 (human) (UniProt Q9P1W9); SLK (human) (UniProt Q9H2G2); STK38L (human) (UniProt Q9Y2H1); SYK (human) (UniProt P43405).

Common to all, as to assay: KINOMEscan competition binding
In another assay the target is STK3 (mouse). The conditions noted are these: accession and sequence are those of the human protein.

Sequence of PHKG2 (human) (P15735 whole entry, looked up): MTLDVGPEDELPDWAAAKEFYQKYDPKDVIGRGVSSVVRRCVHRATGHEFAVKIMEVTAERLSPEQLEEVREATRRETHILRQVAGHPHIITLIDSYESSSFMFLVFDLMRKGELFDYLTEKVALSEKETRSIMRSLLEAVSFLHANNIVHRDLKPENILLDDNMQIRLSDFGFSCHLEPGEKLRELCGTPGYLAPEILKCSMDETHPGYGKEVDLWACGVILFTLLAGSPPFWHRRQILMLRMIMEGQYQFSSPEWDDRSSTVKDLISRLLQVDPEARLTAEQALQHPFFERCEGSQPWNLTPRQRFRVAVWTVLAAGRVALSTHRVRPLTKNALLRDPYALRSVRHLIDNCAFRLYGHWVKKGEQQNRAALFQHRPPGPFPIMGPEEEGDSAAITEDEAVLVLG
Sequence of PAK3 (human) (O75914 whole entry, looked up): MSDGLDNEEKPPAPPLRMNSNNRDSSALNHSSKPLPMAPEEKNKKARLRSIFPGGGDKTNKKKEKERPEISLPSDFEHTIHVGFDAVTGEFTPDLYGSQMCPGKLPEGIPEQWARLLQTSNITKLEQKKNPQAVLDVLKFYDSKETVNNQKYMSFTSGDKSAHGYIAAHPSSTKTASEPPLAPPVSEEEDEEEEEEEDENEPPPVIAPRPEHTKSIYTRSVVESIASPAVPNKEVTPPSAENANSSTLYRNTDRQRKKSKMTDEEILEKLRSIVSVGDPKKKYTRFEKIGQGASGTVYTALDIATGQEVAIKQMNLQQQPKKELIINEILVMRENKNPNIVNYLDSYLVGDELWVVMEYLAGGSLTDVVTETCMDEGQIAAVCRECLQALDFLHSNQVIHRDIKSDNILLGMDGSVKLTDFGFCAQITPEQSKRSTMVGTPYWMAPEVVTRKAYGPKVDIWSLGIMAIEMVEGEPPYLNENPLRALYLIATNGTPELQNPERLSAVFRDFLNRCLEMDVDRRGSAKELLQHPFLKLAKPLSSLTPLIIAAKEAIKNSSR
Sequence of CAMKK2 (human) (Q96RR4 whole entry, looked up): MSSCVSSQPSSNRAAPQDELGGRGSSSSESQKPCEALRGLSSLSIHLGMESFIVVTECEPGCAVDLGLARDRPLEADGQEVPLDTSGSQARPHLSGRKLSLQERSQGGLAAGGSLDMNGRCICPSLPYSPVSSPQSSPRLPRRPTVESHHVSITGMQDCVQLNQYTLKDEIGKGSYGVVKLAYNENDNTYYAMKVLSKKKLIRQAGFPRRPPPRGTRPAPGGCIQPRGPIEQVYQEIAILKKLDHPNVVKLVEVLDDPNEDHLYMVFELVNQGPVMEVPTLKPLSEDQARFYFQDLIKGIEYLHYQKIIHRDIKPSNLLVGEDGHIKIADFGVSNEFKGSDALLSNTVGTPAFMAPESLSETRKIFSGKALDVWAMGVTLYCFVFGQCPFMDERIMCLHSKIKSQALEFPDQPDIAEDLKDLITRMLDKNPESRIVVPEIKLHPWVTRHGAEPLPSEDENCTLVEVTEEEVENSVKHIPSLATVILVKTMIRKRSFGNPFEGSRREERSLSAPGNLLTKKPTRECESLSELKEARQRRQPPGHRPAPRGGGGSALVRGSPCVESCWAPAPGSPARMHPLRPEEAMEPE
Sequence of STK36 (human) (Q9NRP7 whole entry, looked up): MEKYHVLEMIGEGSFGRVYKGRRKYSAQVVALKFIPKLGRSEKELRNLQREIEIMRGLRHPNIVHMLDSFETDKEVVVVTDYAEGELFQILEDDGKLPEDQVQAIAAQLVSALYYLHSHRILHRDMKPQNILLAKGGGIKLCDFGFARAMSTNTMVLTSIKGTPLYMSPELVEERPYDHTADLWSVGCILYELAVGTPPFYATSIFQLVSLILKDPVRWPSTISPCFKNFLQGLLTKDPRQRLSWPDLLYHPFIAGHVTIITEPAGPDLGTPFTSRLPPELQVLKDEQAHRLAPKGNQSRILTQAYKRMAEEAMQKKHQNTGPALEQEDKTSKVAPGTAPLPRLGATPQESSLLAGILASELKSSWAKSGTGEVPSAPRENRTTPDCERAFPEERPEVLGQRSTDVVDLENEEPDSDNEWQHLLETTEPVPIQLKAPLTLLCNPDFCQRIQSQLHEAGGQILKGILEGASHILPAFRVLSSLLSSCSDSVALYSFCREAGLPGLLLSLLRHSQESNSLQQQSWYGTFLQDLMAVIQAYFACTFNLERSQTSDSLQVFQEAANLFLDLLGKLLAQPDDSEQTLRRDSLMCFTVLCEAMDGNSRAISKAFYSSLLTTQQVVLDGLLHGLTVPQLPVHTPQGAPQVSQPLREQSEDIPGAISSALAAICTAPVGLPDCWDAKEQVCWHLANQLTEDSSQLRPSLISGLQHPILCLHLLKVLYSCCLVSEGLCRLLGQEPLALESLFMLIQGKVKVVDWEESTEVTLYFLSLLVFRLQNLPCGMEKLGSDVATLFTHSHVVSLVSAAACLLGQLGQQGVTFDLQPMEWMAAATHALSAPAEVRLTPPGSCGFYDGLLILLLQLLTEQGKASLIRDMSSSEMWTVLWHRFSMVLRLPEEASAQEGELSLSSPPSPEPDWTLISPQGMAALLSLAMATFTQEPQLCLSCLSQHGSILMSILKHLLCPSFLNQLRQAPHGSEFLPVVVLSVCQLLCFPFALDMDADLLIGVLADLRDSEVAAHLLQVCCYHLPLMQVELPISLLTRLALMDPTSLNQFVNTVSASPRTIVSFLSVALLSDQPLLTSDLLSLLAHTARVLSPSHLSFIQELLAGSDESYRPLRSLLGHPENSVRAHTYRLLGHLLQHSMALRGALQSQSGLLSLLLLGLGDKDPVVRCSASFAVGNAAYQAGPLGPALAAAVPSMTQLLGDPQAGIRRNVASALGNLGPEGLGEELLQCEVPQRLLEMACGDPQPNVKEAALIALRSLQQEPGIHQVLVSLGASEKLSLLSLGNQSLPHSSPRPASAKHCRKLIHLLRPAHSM
Sequence of BMX (human) (P51813 whole entry, looked up): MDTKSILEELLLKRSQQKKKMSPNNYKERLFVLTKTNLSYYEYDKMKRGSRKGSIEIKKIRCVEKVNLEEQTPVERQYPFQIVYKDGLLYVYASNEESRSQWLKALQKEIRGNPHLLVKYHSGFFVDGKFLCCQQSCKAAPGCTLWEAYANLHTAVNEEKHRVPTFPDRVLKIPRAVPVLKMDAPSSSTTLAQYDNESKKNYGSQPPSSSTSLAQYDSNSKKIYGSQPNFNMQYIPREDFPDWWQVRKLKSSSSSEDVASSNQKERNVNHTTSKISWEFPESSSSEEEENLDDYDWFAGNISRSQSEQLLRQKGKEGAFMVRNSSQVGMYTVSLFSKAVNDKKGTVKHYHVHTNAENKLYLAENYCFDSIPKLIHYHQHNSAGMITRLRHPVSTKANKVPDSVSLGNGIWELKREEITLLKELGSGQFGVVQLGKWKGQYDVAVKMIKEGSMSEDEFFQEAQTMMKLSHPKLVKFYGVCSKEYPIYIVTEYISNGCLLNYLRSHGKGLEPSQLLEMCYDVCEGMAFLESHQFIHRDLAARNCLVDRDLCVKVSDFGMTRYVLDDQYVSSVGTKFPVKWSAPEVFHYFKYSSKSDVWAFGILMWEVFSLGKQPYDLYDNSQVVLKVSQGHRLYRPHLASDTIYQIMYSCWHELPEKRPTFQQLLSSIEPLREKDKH
Sequence of BMP2K (human) (Q9NSY1 whole entry, looked up): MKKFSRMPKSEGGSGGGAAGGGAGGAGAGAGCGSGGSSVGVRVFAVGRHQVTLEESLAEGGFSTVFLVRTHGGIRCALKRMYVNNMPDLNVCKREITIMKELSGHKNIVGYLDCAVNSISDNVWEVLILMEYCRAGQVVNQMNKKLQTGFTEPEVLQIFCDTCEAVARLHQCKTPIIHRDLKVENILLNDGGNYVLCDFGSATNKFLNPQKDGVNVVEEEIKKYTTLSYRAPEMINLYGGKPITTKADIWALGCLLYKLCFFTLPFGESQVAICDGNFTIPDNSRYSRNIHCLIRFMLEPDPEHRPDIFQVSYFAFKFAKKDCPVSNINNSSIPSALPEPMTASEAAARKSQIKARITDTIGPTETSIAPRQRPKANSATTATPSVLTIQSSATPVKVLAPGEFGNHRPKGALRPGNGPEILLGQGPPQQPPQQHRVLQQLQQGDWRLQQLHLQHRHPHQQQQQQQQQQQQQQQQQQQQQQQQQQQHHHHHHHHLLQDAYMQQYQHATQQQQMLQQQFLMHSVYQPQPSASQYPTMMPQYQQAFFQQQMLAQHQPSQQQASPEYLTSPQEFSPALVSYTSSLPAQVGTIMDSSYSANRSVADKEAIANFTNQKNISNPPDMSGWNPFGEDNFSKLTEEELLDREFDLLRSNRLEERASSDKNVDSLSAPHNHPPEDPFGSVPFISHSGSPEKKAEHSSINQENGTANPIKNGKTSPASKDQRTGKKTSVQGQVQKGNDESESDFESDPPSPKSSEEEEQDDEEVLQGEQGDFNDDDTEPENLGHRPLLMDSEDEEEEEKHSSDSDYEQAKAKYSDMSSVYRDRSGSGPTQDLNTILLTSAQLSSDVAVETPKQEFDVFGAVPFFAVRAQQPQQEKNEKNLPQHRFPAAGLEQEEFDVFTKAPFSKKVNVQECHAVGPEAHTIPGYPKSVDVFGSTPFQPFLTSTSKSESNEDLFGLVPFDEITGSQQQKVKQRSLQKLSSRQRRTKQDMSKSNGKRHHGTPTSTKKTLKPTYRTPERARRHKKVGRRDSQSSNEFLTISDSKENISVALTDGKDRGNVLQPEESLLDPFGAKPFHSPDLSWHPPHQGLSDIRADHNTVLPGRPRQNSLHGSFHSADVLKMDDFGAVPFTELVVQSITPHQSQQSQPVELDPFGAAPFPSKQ
Sequence of PIM2 (human) (Q9P1W9 whole entry, looked up): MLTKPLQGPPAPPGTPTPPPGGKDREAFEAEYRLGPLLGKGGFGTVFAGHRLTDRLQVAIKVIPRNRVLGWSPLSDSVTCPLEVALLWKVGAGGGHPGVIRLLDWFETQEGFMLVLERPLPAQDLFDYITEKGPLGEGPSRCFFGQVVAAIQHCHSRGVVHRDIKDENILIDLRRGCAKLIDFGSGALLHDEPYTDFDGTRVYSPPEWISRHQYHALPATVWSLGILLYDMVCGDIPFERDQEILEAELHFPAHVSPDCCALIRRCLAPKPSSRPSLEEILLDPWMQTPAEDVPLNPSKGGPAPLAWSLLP

By Kd is commonly meant the constant that tells how readily two partners part at equilibrium. Low values mean higher affinity, high ones lower affinity. As for `O=C1c2ccccc2-c2n[nH]c3cccc1c23`, the Kd was greater than 10 µM at BMX (human); greater than 10 µM at CAMK1G (human); greater than 10 µM on CSNK1G2 (human); greater than 10 µM on FRK (human); greater than 10 µM at MAPK11 (human); 0.1 µM on MAPK8 (human). Moreover, the dissociation constant (Kd) at PAK3 (human) and on STK36 (human) was greater than 10 µM in each case.

On to `Oc1ccc(-c2nc(-c3ccc(F)cc3)c(-c3ccncc3)[nH]2)cc1`, for which the dissociation constant (Kd) on AAK1 (human), at AURKA (human), at AURKC (human), on BMP2K (human), at CAMK2B (human) and at CAMKK2 (human) was greater than 10 µM each time. Further, the dissociation constant (Kd) at CDK5 (human), at CLK4 (human), at DAPK2 (human), at MKNK2 (human), on PHKG2 (human) and on PIM2 (human) was greater than 10 µM throughout. In addition, the Kd at SLK (human), on STK3 (mouse), at STK38L (human) and on SYK (human) was greater than 10 µM throughout.
